Assay results published in patent publication US8217063B2, “Lactam-substituted dicarboxylic acids and use thereof” (Bayer Intellectual Property GmbH, priority 2007, dated 2012).
pIC50: −log10 of the molar value.

Tests used:
saphenous artery = assay: Vasorelaxant effect in vitro (phenylephrine-contracted artery rings); set-up: species or system Rabbits; settings: Oryctolagus cuniculus; rabbit saphenous artery rings, contraction induced by phenylephrine
Description: B-1. Vasorelaxant Effect In Vitro:
Rabbits are anesthetized and sacrificed by intravenous injection of thiopental sodium (about 50 mg/kg) and exsanguinated. The saphenous artery is removed and divided into rings 3 mm wide. The rings are mounted singly on in each case a pair of triangular hooks open at the end and made of 0.3 mm-thick special wire (Remanium®). Each ring is placed under an initial tension in 5 ml organ baths with Krebs-Henseleit solution which is at 37° C., is gassed with carbogen and has the following composition: NaCl 119 mM; KCl 4.8 mM; CaCl2×2H2O 1 mM; MgSO4×7H2O 1.4 mM; KH2PO4 1.2 mM; NaHCO3 25 mM; glucose 10 mM; bovine serum albumin 0.001%. The force of contraction is detected with Statham UC2 cells, amplified and digitized via A/D converters (DAS-1802 HC, Keithley Instruments, Munich) and recorded in parallel on chart recorders. Contractions are induced by addition of phenylephrine.
After several (generally 4) control cycles, the substance to be investigated is added in each further run in increasing dosage, and the height of the contraction achieved under the influence of the test substance is compared with the height of the contraction reached in the last preceding run. The concentration necessary to reduce the contraction reached in the preceding control by 50% is calculated from this (IC50). The standard application volume is 5 μl. The proportion of DMSO in the bath solution corresponds to 0.1%.

Heme-containing sGC = biological target: T1, Heme-containing sGC (Rattus norvegicus, UniProt P20595); assay: Stimulation of recombinant soluble guanylate cyclase (sGC) in vitro, heme-containing enzyme; format: biochemical
T1 construct: made in house; host or cells: baculovirus/Sf9
T1 sequence (P20595 1-619): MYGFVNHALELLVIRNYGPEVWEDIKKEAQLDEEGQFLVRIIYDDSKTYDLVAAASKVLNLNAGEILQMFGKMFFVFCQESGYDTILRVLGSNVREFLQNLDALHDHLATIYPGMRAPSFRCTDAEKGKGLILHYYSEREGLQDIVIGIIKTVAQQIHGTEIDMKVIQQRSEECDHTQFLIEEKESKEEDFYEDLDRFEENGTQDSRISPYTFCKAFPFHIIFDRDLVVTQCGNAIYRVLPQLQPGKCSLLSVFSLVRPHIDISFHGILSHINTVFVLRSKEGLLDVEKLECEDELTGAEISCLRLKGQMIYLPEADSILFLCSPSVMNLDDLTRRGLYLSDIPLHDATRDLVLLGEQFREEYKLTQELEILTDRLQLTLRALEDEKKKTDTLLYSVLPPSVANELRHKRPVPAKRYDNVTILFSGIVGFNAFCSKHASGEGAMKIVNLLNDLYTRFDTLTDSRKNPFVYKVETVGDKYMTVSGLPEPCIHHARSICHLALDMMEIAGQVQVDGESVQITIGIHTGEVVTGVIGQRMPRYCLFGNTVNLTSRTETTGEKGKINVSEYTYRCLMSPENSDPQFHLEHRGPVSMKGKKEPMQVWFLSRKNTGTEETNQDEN
T1 sequence (P19686 1-690 partner): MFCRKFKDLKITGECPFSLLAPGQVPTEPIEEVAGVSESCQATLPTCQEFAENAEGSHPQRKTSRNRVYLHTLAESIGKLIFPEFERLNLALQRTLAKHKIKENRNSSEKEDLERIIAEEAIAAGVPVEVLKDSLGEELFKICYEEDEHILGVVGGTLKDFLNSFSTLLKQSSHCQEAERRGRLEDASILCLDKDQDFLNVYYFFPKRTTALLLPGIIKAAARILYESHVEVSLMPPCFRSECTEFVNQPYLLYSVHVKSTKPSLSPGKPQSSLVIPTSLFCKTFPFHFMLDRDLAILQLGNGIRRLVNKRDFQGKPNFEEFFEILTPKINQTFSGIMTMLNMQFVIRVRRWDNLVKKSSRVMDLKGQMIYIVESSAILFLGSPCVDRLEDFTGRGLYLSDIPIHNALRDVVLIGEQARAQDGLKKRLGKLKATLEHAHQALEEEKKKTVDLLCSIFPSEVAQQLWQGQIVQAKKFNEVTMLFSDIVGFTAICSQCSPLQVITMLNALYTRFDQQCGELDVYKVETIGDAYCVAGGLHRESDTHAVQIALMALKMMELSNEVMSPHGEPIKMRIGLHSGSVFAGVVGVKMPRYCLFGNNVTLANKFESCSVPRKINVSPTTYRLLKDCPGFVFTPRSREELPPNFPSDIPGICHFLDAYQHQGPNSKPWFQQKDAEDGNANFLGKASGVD
Source text: (§1) B-2. Stimulation of Recombinant Soluble Guanylate Cyclase (sGC) In Vitro:
Hoenicka, E. M. Becker, H. Apeler, T. Sirichoke, H. Schroeder, R. Gerzer and J.-P. Stasch, “Purified soluble guanylyl cyclase expressed in a baculovirus/Sf9 system: Stimulation by YC-1, nitric oxide, and carbon oxide”, J. Mol. Med. 77 (1999), 14-23. The heme-free guanylate cyclase is obtained by adding Tween 20 to the sample buffer (0.5% in the final concentration).
(§2) The activation of sGC by a test substance is reported as n-fold stimulation of the basal activity.

[1] = biological target: T2, recombinant guanylate cyclase reporter cell line (Rattus norvegicus, UniProt P20595); assay: sGC-activating activity in the CHO reporter cell in vitro; format: cell-based
T2 construct: expressed in transfected cells; host or cells: CHO
T2 sequence (P20595 1-619): T1 sequence (P20595 1-619)
T2 sequence (P19686 1-690 partner): T1 sequence (P19686 1-690 partner)
Description: B-3. Action at Recombinant Guanylate Cyclase Reporter Cell Lines
The cellular action of the compounds according to the invention is determined using a recombinant guanylate cyclase reporter cell line, as described in F. Wunder et al., Anal. Biochem. 339, 104-112 (2005).

Heme-free sGC = biological target: T3, Heme-free sGC (Rattus norvegicus, UniProt P20595); assay: Stimulation of recombinant soluble guanylate cyclase (sGC) in vitro, heme-free enzyme; format: biochemical; settings: heme-free sGC (0.5% Tween 20)
T3 construct: made in house; host or cells: baculovirus/Sf9
T3 sequence (P20595 1-619): T1 sequence (P20595 1-619)
T3 sequence (P19686 1-690 partner): T1 sequence (P19686 1-690 partner)
Description: as §1
Investigations on the stimulation of recombinant soluble guanylate cyclase (sGC) by the compounds according to the invention with and without sodium nitroprusside, and with and without the heme-dependent sGC inhibitor 1H-1,2,4-oxadiazole-(4,3a)-quinoxalin-1-one (ODQ) are carried out by the method described in detail in the following reference: M. Hoenicka, E. M. Becker, H. Apeler, T. Sirichoke, H. Schroeder, R. Gerzer and J.-P. Stasch, “Purified soluble guanylyl cyclase expressed in a baculovirus/Sf9 system: Stimulation by YC-1, nitric oxide, and […]”, J. Mol. Med. 77 (1999), 14-23. The heme-free guanylate cyclase is obtained by adding Tween 20 to the sample buffer (0.5% in the final concentration).
as §2

O=C(O)c1ccc(CCC(/C=C/c2ccccc2OCCCN2CCCC2=O)Cc2ccc(C(=O)O)cc2)cc1 (single isomer, unassigned) [Example 3, 4-[(4E)-3-(4-Carboxybenzyl)-5-{2-[3-(2-oxopyrrolidin-1-yl)propoxy]phenyl}pent-4-en-1-yl]-benzoic acid]
pIC50 (saphenous artery): 7.28
Stimulation (n-fold) of sGC, +0.1 μM DEA/NO (Heme-containing sGC; 0.01 μM Example 3): 23.3 n-fold
Stimulation (n-fold) of sGC, +0.1 μM DEA/NO (Heme-containing sGC; 0.1 μM Example 3): 34.7 n-fold
Stimulation (n-fold) of sGC, +0.1 μM DEA/NO (Heme-containing sGC; 1 μM Example 3): 41.6 n-fold
Stimulation (n-fold) of sGC, +0.1 μM DEA/NO (Heme-containing sGC; 10 μM Example 3): 40.0 n-fold
Stimulation (n-fold) of sGC, +10 μM ODQ (Heme-containing sGC; 0.01 μM Example 3): 35.1 n-fold
Stimulation (n-fold) of sGC, +10 μM ODQ (Heme-containing sGC; 0.1 μM Example 3): 98.0 n-fold
Stimulation (n-fold) of sGC, +10 μM ODQ (Heme-containing sGC; 1 μM Example 3): 124 n-fold
Stimulation (n-fold) of sGC, +10 μM ODQ (Heme-containing sGC; 10 μM Example 3): 134 n-fold
Stimulation (n-fold) of sGC, Basal (Heme-containing sGC; 0.01 μM Example 3): 6.1 n-fold
Stimulation (n-fold) of sGC, Basal (Heme-containing sGC; 0.1 μM Example 3): 11.6 n-fold
Stimulation (n-fold) of sGC, Basal (Heme-containing sGC; 1 μM Example 3): 16.0 n-fold
Stimulation (n-fold) of sGC, Basal (Heme-containing sGC; 10 μM Example 3): 18.9 n-fold
Synergy with the NO donor DEA/NO on sGC (Heme-containing sGC; combination with DEA/NO): no synergistic effect
MEC (minimum effective concentration) [1]: 1 nM
Stimulation (n-fold) of heme-free sGC, Basal (Heme-free sGC; 0.01 μM Example 3): 9.9 n-fold
Stimulation (n-fold) of heme-free sGC, Basal (Heme-free sGC; 0.1 μM Example 3): 35.2 n-fold
Stimulation (n-fold) of heme-free sGC, Basal (Heme-free sGC; 1 μM Example 3): 69.7 n-fold
Stimulation (n-fold) of heme-free sGC, Basal (Heme-free sGC; 10 μM Example 3): 74.6 n-fold

O=C(O)c1ccc(CCC(/C=C/c2ccccc2OCCCN2CCOCC2=O)Cc2ccc(C(=O)O)cc2)cc1 (single isomer, unassigned) [Example 4, 4-[(4E)-3-(4-Carboxybenzyl)-5-{2-[3-(3-oxomorpholin-4-yl)propoxy]phenyl}pent-4-en-1-yl]-benzoic acid]
pIC50 (saphenous artery): 6.48
MEC (minimum effective concentration) [1]: 2 nM
